According to patent US20240099304A1, “SYNERGISTIC HERBICIDAL COMPOSITIONS OF METAMIFOP” (Parijat Industries (India) Private Limited, priority 2021, published 2024):

What was measured:
Assay type in all cases: in vivo
Echinochloa crusgalli = experiment: Field efficacy on grass weed in soybean, post-emergence foliar application
Experimental: (§1) As described in the Herbicide Handbook of the Weed Science Society of America, Ninth Edition, 2007, p. 429, “synergism” [is] an interaction of two or more factors such that the effect when combined is greater than the predicted effect based on the response to each factor applied separately. In the Colby method, the expected (or predicted) response of a combination of herbicides is calculated by taking the product of the observed response for each individual component of the combination when applied alone divided by 100 and subtracting this value from the sum of the observed response for each component while applied alone. An unexpected enhancement in efficacy of the combination is then determined by comparing the observed response of the combination to the expected (or predicted) response as calculated from the observed response of each individual component alone. If the observed response of the combination is greater than the expected (or predicted) response, or stated conversely, if the difference between the observed and expected response is greater than zero, then the combination is said to be synergistic or unexpectedly effective. (Colby, S. R., Weeds, 1967(15), p. 20-22). The Colby method required only a single dose of each herbicide applied alone and the mixture of both doses.
(§2) Synergy Study: The following formula was used to calculate the expected activity of mixtures containing active ingredients, A and B:
(§3) • A=Observed efficacy of active ingredient (combination of Metamifop and Imidazolinone herbicides) A at the same concentration as used in the mixture. • B=observed efficacy of active ingredient B at the same concentration as used in the mixture. However, following formula was used to calculate the expected activity of mixtures containing three active ingredients, A, B and C:
(§4) • A=observed efficacy of active ingredient (combination of Metamifop and Imidazolinone herbicides) A at the same concentration as used in the mixture. • B=observed efficacy of active ingredient B at the same concentration as used in the mixture. • C=observed efficacy of active ingredient C at the same concentration as used in the mixture.
(§5) EFFICACY STUDY: The field experiments were carried out to test the synergy of the combination Metamifop, Imazethapyr, and Imazamox in India at various locations like in MP, Maharashtra, Karnataka, and Telangana on farmer's field against soybean weeds during Kharif season. The experiment comprising of 15 treatments including premixed binary and ternary combinations along with their stand-alone molecule using a randomized block design replicated thrice. All the treatments were applied as post-emergence foliar application when the weeds reached to two to four leaf stage. The spray was conducted with the help of Battery-operated Knapsack sprayer. The percentage efficacy was calculated after 14 and 21 days after application of herbicides.
(§6) The weeds present in the experimental fields were echinochloa conola, echinochloa crusgalli, brachiaria euriciformis, rottboellia cochinchinensis, cynodon dactylon, parthenium hyterophorus, digera arvensis, cynotis axillaris, acalypha indica, Commelina benghalensis, celosia argentia, cyperus spp.

Brachiaria eruciformis = experiment: as above
Experimental: as §1, §2, §3, §4, §5, §6

[1] = system: Rottboellia cochinchinensis; experiment: as above
Experimental: as §1, §2, §3, §4, §5, §6

Parthenium hysterophorus = experiment: Field efficacy on broad leaf weed in soybean, post-emergence foliar application
Experimental: as §1, §2, §3, §4, §5, §6

Commelina benghalensis = experiment: as above
Experimental: as §1, §2, §3, §4, §5, §6

Cyanotis axillaris = experiment: as above
Experimental: as §1, §2, §3, §4, §5, §6

Soybean = experiment: Phytotoxicity in Soybean, visual grading on 0-10 scale; conditions: Soybean
Experimental: as §5
Phytotoxic effect of herbicidal combination of Metamifop, Imazethapyr and Imazamox in soyabean: Table 5, 10 show the visual observations and grading on phytotoxicity which was recorded for leaf injury on tip/surface, Epinasty/Hyponasty, and wilting etc. on 0-10 scale (as below) at 1, 3, 7, 14 and 21 days after application of the present herbicidal composition.

[2] = system: hard to kill broad leaf weeds; experiment: Field efficacy, summary on broad leaf weeds
Experimental: as §1, §5

C[C@@H](Oc1ccc(Oc2nc3ccc(Cl)cc3o2)cc1)C(=O)N(C)c1ccccc1F [Metamifop]
% Weed control burn down symptoms generation Observed (Echinochloa crusgalli; 14 DAA, Metamifop 80 gm ai/ha): 80%
% Weed control burn down symptoms generation Observed (Echinochloa crusgalli; 14 DAA, Metamifop 90 gm ai/ha): 83%
% Weed control burn down symptoms generation Observed (Echinochloa crusgalli; 21 DAA, Metamifop 80 gm ai/ha): 74%
% Weed control burn down symptoms generation Observed (Echinochloa crusgalli; 21 DAA, Metamifop 90 gm ai/ha): 77%
% Weed control burn down symptoms generation Observed (Brachiaria eruciformis; 14 DAA, Metamifop 80 gm ai/ha): 84%
% Weed control burn down symptoms generation Observed (Brachiaria eruciformis; 14 DAA, Metamifop 90 gm ai/ha): 88%
% Weed control burn down symptoms generation Observed (Brachiaria eruciformis; 21 DAA, Metamifop 80 gm ai/ha): 78%
% Weed control burn down symptoms generation Observed (Brachiaria eruciformis; 21 DAA, Metamifop 90 gm ai/ha): 81%
% Weed control burn down symptoms generation Observed ([1]; 14 DAA, Metamifop 80 gm ai/ha): 67%
% Weed control burn down symptoms generation Observed ([1]; 14 DAA, Metamifop 90 gm ai/ha): 70%
% Weed control burn down symptoms generation Observed ([1]; 21 DAA, Metamifop 80 gm ai/ha): 70%
% Weed control burn down symptoms generation Observed ([1]; 21 DAA, Metamifop 90 gm ai/ha): 72%
% Weed control burn down symptoms generation Observed (Parthenium hysterophorus; 14 DAA, Metamifop 80 gm ai/ha): 0%
% Weed control burn down symptoms generation Observed (Parthenium hysterophorus; 14 DAA, Metamifop 90 gm ai/ha): 0%
% Weed control burn down symptoms generation Observed (Parthenium hysterophorus; 21 DAA, Metamifop 80 gm ai/ha): 0%
% Weed control burn down symptoms generation Observed (Parthenium hysterophorus; 21 DAA, Metamifop 90 gm ai/ha): 0%
% Weed control burn down symptoms generation Observed (Commelina benghalensis; 14 DAA, Metamifop 80 gm ai/ha): 0%
% Weed control burn down symptoms generation Observed (Commelina benghalensis; 14 DAA, Metamifop 90 gm ai/ha): 0%
% Weed control burn down symptoms generation Observed (Commelina benghalensis; 21 DAA, Metamifop 80 gm ai/ha): 0%
% Weed control burn down symptoms generation Observed (Commelina benghalensis; 21 DAA, Metamifop 90 gm ai/ha): 0%
% Weed control burn down symptoms generation Observed (Cyanotis axillaris; 14 DAA, Metamifop 80 gm ai/ha): 0%
% Weed control burn down symptoms generation Observed (Cyanotis axillaris; 14 DAA, Metamifop 90 gm ai/ha): 0%
% Weed control burn down symptoms generation Observed (Cyanotis axillaris; 21 DAA, Metamifop 80 gm ai/ha): 0%
% Weed control burn down symptoms generation Observed (Cyanotis axillaris; 21 DAA, Metamifop 90 gm ai/ha): 0%
Phytotoxicity score (Soybean; 1 DAA, Metamifop 80 gm ai/ha): 0
Phytotoxicity score (Soybean; 1 DAA, Metamifop 90 gm ai/ha): 0
Phytotoxicity score (Soybean; 3 DAA, Metamifop 80 gm ai/ha): 0
Phytotoxicity score (Soybean; 3 DAA, Metamifop 90 gm ai/ha): 0
Phytotoxicity score (Soybean; 7 DAA, Metamifop 80 gm ai/ha): 0
Phytotoxicity score (Soybean; 7 DAA, Metamifop 90 gm ai/ha): 0
Phytotoxicity score (Soybean; 14 DAA, Metamifop 80 gm ai/ha): 0
Phytotoxicity score (Soybean; 14 DAA, Metamifop 90 gm ai/ha): 0
Phytotoxicity score (Soybean; 21 DAA, Metamifop 80 gm ai/ha): 0
Phytotoxicity score (Soybean; 21 DAA, Metamifop 90 gm ai/ha): 0
Control on targeted weeds, applied alone ([2]; at 14 days): no or very less control
Control on targeted weeds, applied alone ([2]; at 21 days): no or very less control
